Laboratory results published in patent US4686237A, “Erythro-(E)-7-[3'-C1-3 alkyl-1'-(3",5"-dimethylphenyl)naphth-2'-yl]-3,5-dihydroxyhept-6-enoic acids and derivatives thereof” (Sandoz Pharmaceuticals Corp., priority 1986, dated 1987).
pIC50: −log10 of the molar value. Where two headings read alike, the source gives them in different places.

Key:
HMG-CoA reductase = target: T1, HMG-CoA reductase (Rattus norvegicus, UniProt P51639); assay: Test A. In Vitro Microsomal Assay of HMG-CoA Reductase Inhibition; format: biochemical; conditions: rat liver microsomal suspensions, male Sprague-Dawley rats; read-out: IC50 (concentration of the test substance calculated to produce a 50% inhibition of HMG-CoA reductase activity)
T1 construct: In the assay the microsomes are the source of the HMG-CoA reductase enzyme; from tissue; host or cells: rat liver microsomes (male Sprague-Dawley rats)
T1 sequence (P51639 1-887): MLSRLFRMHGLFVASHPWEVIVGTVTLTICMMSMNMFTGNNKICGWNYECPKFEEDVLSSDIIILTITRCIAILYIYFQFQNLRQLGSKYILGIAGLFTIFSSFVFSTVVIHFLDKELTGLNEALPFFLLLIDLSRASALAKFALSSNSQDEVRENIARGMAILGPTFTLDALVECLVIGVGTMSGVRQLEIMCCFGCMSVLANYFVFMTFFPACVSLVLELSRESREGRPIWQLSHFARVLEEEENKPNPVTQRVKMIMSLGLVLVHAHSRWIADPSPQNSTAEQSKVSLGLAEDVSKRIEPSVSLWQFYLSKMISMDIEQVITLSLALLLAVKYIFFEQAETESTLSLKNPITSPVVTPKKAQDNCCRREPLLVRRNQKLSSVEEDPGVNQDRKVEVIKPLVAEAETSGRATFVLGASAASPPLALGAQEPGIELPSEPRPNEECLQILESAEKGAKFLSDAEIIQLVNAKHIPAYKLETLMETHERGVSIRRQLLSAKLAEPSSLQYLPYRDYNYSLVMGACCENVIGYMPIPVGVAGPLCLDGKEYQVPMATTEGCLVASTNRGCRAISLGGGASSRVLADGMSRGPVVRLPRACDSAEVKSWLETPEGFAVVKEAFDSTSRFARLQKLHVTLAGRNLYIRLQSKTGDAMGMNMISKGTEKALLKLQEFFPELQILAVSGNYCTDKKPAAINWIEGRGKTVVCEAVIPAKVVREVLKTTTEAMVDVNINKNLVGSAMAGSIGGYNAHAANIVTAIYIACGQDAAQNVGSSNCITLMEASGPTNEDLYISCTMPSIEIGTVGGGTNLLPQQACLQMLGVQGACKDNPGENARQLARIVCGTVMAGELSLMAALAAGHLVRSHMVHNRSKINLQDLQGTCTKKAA
Procedure: Test A. In Vitro Microsomal Assay of HMG-CoA Reductase Inhibition:
200 μl. aliquots (1.08-1.50 mg./ml.) of rat liver microsomal suspensions, freshly prepared from male Sprague-Dawley rats (150-225 g. body weight), in Buffer A with 10 mmol. dithiothreitol are incubated with 10 μl. of a solution of the test substance in dimethylacetamide and assayed for HMG-CoA reduotase activity as described in Ackerman et al., J. Lipid Res. 18, 408-413 (1977). In the assay the microsomes are the source of the HMG-CoA reductase enzyme which catalyzes the reduction of HMG-CoA to mevalonate. The assay employs a chloroform extraction to separate the product, [^14 C]mevalonolactone, formed by the HMG-CoA reductase reaction from the substrate, [^14 C]HMG-CoA. [^3 H]mevalonolactoneis added as an internal reference. Inhibition of HMG-CoA reductase is calculated from the decrease in specific activity ([^14 C/^3 H]mevalonate) of test groups compared to controls.
IC50 is the concentration of the test substance in
the assay system calculated to produce a 50%
inhibition of HMG-CoA reductase activity.

cholesterol biosynthesis = assay: Test C: In Vivo Cholesterol Biosynthesis Inhibition Test; set-up: species or system rat; conditions: for change in sterol synthesis (nCi of sterols formed) from test groups compared to controls: at 0.5 mg./kg.; for ED50: Rattus norvegicus, ip, read-out: ED50 (inhibition of sterol synthesis)
Source text: Test C: In Vivo Cholesterol Biosynthesis Inhibition Test: In vivo studies utilize male Wistar Royal Hart rats weighing 150±20 g. which have been kept for 7-10 days on an altered light cycle (6:30 A.M.-6:30 P.M. dark) housed two per cage and fed powdered Purina Rat Chow and water ad libitum. […] Controls receive vehicle alone. […] Two hours after mid-dark, blood samples are obtained under sodium hexobarbitol anesthesia and the serum is separated by centrifugation. […] The [^14 C]digitonides are then counted by liquid scintillation spectrometry. […] Inhibition of sterol synthesis is calculated from the reduction in the nCi of sterols formed from test groups compared to controls.

[1] = male Wistar Royal Hart rats, [1-14C]acetate i.p.

Row | SMILES | pIC50 (HMG-CoA reductase) | change in sterol synthesis (nCi of sterols formed) from test groups compared to controls (cholesterol biosynthesis; [1]) | ED50 (cholesterol biosynthesis; [1]) | ED50 (cholesterol biosynthesis)
1 | CCOC(=O)C[C@H](O)C[C@H](O)/C=C/c1c(C)cc2ccccc2c1-c1cc(C)cc(C)c1 (relative stereo) [Example 1, Ethyl erythro-(E)-3,5-dihydroxy-7-[1'-(3",5"-dimethylphenyl)-3-methylnaphth-2'-yl]hept-6-enoate] | 7.10 | -35% | – | –
2 | Cc1cc(C)cc(-c2c(/C=C/[C@@H](O)C[C@@H](O)CC(=O)O)c(C)cc3ccccc23)c1 (relative stereo) [Example 2, Sodium erythro-(E)-3,5-dihydroxy-7-[1'-(3",5"-dimethylphenyl)-3'-methylnaphth-2'-yl]hept-6-enoate] | 8.00 | – | 0.3 mg/kg | –
3 | CC[C@H](C)C(=O)O[C@H]1C[C@@H](C)C=C2C=C[C@H](C)[C@H](CC[C@@H]3C[C@@H](O)CC(=O)O3)[C@H]21 [Mevinolin, reference compound] | – | – | – | 0.41 mg/kg

Further compounds by rising pIC50 (HMG-CoA reductase), results first:

Row | pIC50 (HMG-CoA reductase) | SMILES | change in sterol synthesis (nCi of sterols formed) from test groups compared to controls (cholesterol biosynthesis; [1]) | ED50 (cholesterol biosynthesis; [1]) | ED50 (cholesterol biosynthesis)
4 | 6.11 | CC[C@H](C)C(=O)O[C@H]1CCC=C2C=C[C@H](C)[C@H](CC[C@@H]3C[C@@H](O)CC(=O)O3)[C@H]21 [Compactin, reference compound] | – | 3.5 mg/kg | –
5 | 6.48 | Cc1cc(C)cc(-c2c(/C=C/[C@@H]3C[C@@H](O)CC(=O)O3)c(C)cc3ccccc23)c1 (relative stereo) [Example 4, (E)-Trans-6-(2'-[1"-(3"',5"'-dimethylphenyl)-3"-methylnaphth-2"-yl]ethenyl)-4-hydroxy-3,4,5,6-tetrahydro-2H-pyran-2-one] | -20% | – | –
